Data: patent US20050074867A1, “Preservation of competent cells at ambient temperatures” (priority 2001, published 2005)

System: Escherichia coli ATCC strain MM294 cells
Experiment: Electroporation of E. coli MM294 cells with pUC18 (survival and efficiency)
Format: cell-based
Settings: cells loaded with 10% MAG, preserved (dried); average of three independent experiments
Protocol: (2) Electroporation of fresh E. coli electrocompetent cells: Two aliquots of the concentrated cells (50 μl each) were transferred into pre-chilled Eppendorf tubes (1.5 ml) and 2 μl of pUC18 plasmid DNA (approx. 300 ng/μl) were added to the tubes. The [cells+DNA] mixtures were incubated on ice for 5 minutes and transferred into pre-chilled cuvettes for electroporation. The cells were electroporated by using a BTX T-100 electroporator, at 625 or at 800 volts (V) in BTX cuvettes (0.1 cm gap, P/N 610 Disposable Cuvettes) with a time constant “r” equal 5 msec. Under the pulse conditions described above, the cells were subjected to an electrical field “E” equal to 6.25 kV/cm or 8.0 kV/cm.
Immediately after the pulse, the cells were transferred into small glass tubes (10×100 mm) with 0.5 ml of “outgrowth medium” (L-broth+20% sucrose+10 mM CaCl2). The electroporated bacteria were incubated at 37° C. with moderate shaking (150 rpm) for 60 minutes. When the 60 minutes period elapsed, the cells were diluted in “outgrowth medium” and duplicate samples were spread plated on L-agar plates with no antibiotic (to determine electroporation survival) and on L-agar plates with 50 μg/ml or 100 μg/ml of ampicillin (selective marker on pUC18 plasmid; to determine electroporation efficiency). The plates were incubated overnight at 37° C. and the colonies were counted the next day.
(6) Electroporation of dried (preserved) E. coli cells: One or two 50 μl aliquots were removed from each rehydrated vial and transferred to pre-chilled Eppendorf tubes. The cells were mixed with pUC18 plasmid DNA (300 ng/μl) and electroporated using the conditions described previously for the electroporation of fresh electrocompetent cells.
Electroporation survival was calculated as the number of viable cells recovered after electrical pulse per total number of electroportated cells. Electroporation efficiency was calculated as the number of transformants (cells which received pUC18 plasmid DNA) per number of cells recovered after electroporation (electroporation survival). When applicable, the electroporation efficiency was also expressed as number of transformants per 1 μg of pUC18 DNA (Cfu/μg).
In this experiment, the cells were washed twice in ice-cold 20% sucrose and concentrated 100-fold after the second wash. Additionally, four samples were prepared (A, B, C, and D). […] Additional solution consisting of 22.5% 4:1 sucrose:MAG was prepared and evaluated for preservation of the cells (sample D). […] Electroporation survival and efficiencies in samples rehydrated with solutions containing different amounts of sucrose were determined. […] Electroporation survival and efficiencies were determined and compared.

Compound: COC1OC(CO)C(O)C(O)C1O (stereo not shown) [MAG, a-methyl-glucoside]
- Electroporation Efficiency 10^−3%: 5.6 10^−3%
- Electroporation Efficiency Cfu/ml: 1.7 × 10^5 Cfu/ml
- Electroporation Survival (%): 28.6%
- Electroporation Survival Cfu/ml: 3.0 × 10^9 Cfu/ml
